Data set [1] is described as follows: In vitro half-life by substrate depletion in pHLS9. In kind it is in vitro ADME. The following applies: human, pooled human liver S9 fraction (pHLS9), pHLS9, 25 µM substrate, sampling 0-180 min, read-out: in vitro half-life (t1/2). On the procedure: Incubations with pHLS9 were performed in accordance with previous publications and minor adjustments (Richter et al. [2017]). First, 25 μg/mL alamethicin (UGT reaction mix B), pHLS9 (2 mg microsomal protein/mL), 0.1 mM AcCoA, 2.3 mM acetylcarnitine, 8 U/mL carnitine acetyltransferase, 2.5 mM isocitrate, 0.8 U/mL isocitrate dehydrogenase, 100 U/mL superoxide dismutase, 0.6 mM NADP^+ and 2.5 mM Mg^2+ were preincubated for 10 min at 37 °C. Then, 2.5 mM UDP-glucuronic acid (UGT reaction mix A), 40 µM PAPS, 1.2 mM SAM, 1 mM DTT and 10 mM GSH were added. The reaction was started by adding the respective substrate MDPM, MDMA, or quetiapine (25 µM each). MDMA and quetiapine were incubated as positive controls. Negative control samples without enzymes and blank samples without substrates were incubated to identify not metabolically formed compounds and to confirm the absence of interfering compounds. […] Aliquots (50 µL) were transferred to a new reaction tube after 60 and 360 min. […] Samples were vortexed, stored at − 20 °C for 30 min, and centrifuged for 2 min at 18,407×g.
Incubations to investigate in vitro half-life were performed under the same incubation conditions as described above and done in duplicate. […] A t-test was performed to compare absolute peak areas of the incubation group and the control group at 0 min. […]
In vitro half-life was determined by measuring substrate depletion. […]

For data set [2], the target named is CYP2D6 (Homo sapiens, UniProt P10635). Description: CYP inhibition cocktail assay in pHLM, CYP2D6 (dextromethorphan). On the procedure: (§1) A modified dual-cocktail based method (Dinger et al. [2014b]) was used. Substrate cocktail A consisted of 8.9 µM dextromethorphan (CYP2D6), 86 µM testosterone (CYP3A4), 3.5 µM diclofenac (CYP2C9), and 12 µM phenacetin (CYP1A2). Substrate cocktail B included 30 µM bupropion (CYP2B6), 2 µM amodiaquine (CYP2C8) and 21 µM omeprazole (CYP2C19). Substrate concentrations were near their respective Michaelis–Menten constant (Km) values (Dinger et al. [2014a]) and all concentrations are final. Enzyme inhibition was investigated using a positive control, a test group, a control group, an interference group, and a negative control. In the test group, specific inhibitors were replaced by MDPM (20 µM). Instead of inhibitors, phosphate buffer was used in the control group. Enzymes were replaced with phosphate buffer in the negative control group. The interference group was incubated like the control group, but the reaction was stopped with 20 µM MDPM in acetonitrile, also containing 2.5 µM trimipramine-d3. All groups were incubated with a NADPH-regenerating system, consisting of 5 mM isocitrate, 2 U/mL isocitrate dehydrogenase, 5 mM Mg^2+, and 1.2 mM NADP^+. Further, substrate cocktail A or B, 90 mM phosphate buffer (pH 7.4), and 200 U/mL superoxide dismutase were added to each group. […] All groups were preincubated for 10 min at 37 °C. Then, pHLM (0.4 mg microsomal protein/mL) was added to each group except the negative control. Incubations were done for 15 min at 37 °C. Therefore, 50 µL of acetonitrile (− 20 °C) containing 2.5 µM trimipramine-d3 as internal standard was added. Incubations were done in triplicates and organic solvent in the incubation mixture was below 1% (Chauret et al. [1998]). Afterwards the samples were vortexed and centrifuged for 2 min at 18,407×g. 70 µL of the supernatant were transferred to autosampler vials and 10 µL were injected onto the LC-HRMS/MS system. Enzyme inhibition was evaluated by metabolite formation. […] The following settings were used: unpaired; one-tailed; significance level, 0.05; confidence intervals, 99%.

For data set [3], the target named is T1, CYP1A2 (Homo sapiens, UniProt P05177).
T1 sequence (P05177 1-516): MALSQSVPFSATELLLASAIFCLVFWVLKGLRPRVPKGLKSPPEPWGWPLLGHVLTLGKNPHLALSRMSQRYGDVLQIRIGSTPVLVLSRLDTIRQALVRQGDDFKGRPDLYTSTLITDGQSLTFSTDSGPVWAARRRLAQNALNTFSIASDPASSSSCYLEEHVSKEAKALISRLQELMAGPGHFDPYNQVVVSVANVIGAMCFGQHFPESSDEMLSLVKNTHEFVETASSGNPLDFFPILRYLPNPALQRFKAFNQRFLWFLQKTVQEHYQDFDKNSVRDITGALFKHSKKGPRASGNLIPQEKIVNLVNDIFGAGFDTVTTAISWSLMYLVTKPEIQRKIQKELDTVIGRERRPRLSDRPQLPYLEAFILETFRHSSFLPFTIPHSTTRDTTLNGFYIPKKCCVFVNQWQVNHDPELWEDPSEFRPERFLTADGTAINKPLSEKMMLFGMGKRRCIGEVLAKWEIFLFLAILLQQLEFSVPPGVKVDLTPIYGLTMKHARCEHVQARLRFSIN
As to the kind of experiment: CYP inhibition cocktail assay in pHLM, CYP1A2 (phenacetin). On the procedure: A modified dual-cocktail based method (Dinger et al. [2014b]) was used. Substrate cocktail A consisted of 8.9 µM dextromethorphan (CYP2D6), 86 µM testosterone (CYP3A4), 3.5 µM diclofenac (CYP2C9), and 12 µM phenacetin (CYP1A2). Substrate cocktail B included 30 µM bupropion (CYP2B6), 2 µM amodiaquine (CYP2C8) and 21 µM omeprazole (CYP2C19). Substrate concentrations were near their respective Michaelis–Menten constant (Km) values (Dinger et al. [2014a]) and all concentrations are final. Enzyme inhibition was investigated using a positive control, a test group, a control group, an interference group, and a negative control. In the test group, specific inhibitors were replaced by MDPM (20 µM). Instead of inhibitors, phosphate buffer was used in the control group. Enzymes were replaced with phosphate buffer in the negative control group. The interference group was incubated like the control group, but the reaction was stopped with 20 µM MDPM in acetonitrile, also containing 2.5 µM trimipramine-d3. All groups were incubated with a NADPH-regenerating system, consisting of 5 mM isocitrate, 2 U/mL isocitrate dehydrogenase, 5 mM Mg^2+, and 1.2 mM NADP^+. Further, substrate cocktail A or B, 90 mM phosphate buffer (pH 7.4), and 200 U/mL superoxide dismutase were added to each group. […] All groups were preincubated for 10 min at 37 °C. […] Enzyme inhibition was evaluated by metabolite formation. […]

For data set [4], the target named is T2, CYP2C8 (Homo sapiens, UniProt P10632).
T2 sequence (P10632 1-490): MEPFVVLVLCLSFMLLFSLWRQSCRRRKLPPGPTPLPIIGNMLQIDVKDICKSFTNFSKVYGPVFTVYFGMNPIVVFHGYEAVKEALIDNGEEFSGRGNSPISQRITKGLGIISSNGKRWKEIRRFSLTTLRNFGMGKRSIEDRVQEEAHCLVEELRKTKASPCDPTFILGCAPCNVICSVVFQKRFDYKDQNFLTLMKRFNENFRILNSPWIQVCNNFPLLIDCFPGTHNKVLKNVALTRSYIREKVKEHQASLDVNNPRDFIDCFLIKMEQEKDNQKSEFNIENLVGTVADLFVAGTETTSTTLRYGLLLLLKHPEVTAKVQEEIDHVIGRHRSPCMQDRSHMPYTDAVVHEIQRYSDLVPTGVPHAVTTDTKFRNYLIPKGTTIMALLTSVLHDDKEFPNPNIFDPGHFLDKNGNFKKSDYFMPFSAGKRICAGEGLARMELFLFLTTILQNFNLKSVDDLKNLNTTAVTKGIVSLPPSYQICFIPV
As to the kind of experiment: CYP inhibition cocktail assay in pHLM, CYP2C8 (amodiaquine). The following applies: inhibitor 20 µM. On the procedure: as §1

CYP2D6, sequence (P10635 whole entry): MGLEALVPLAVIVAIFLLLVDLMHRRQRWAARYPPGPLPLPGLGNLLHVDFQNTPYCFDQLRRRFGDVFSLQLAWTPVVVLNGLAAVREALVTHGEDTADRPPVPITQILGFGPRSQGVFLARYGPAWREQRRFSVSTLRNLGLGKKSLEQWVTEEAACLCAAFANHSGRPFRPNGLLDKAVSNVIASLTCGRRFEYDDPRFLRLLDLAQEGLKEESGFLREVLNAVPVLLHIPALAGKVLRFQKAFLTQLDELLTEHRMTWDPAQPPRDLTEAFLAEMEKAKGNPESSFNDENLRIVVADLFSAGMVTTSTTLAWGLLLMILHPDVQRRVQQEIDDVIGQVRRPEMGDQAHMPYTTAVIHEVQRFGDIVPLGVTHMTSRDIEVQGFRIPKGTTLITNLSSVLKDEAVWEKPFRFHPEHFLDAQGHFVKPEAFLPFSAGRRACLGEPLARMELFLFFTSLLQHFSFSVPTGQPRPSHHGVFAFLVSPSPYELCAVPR

As a reminder, the inhibition is the percentage by which the read-out fell short of the control. Higher therefore signals a strong effect. Take `CC1NCCOC1c1ccc2c(c1)OCO2` (stereo not shown) [MDPM, 2-(1,3-benzodioxol-5-yl)-3-methylmorpholine]: the half-life at 25 µM in data set [1] is greater than 3 h. The inhibition at 15 min, 20 µM amounted to 77% in data set [2] (human, pH 7.4) and 39% in data set [3] (human, pooled human liver microsomes (pHLM), pH 7.4, probe phenacetin (12 µM)). In data set [2] (inhibitor 20 µM, dextromethorphan 8.9 µM, pHLM 0.4 mg/mL, 15 min, control without inhibitor = 100%), the CYP2D6 metabolite formation amounted to 23%. Also, the CYP1A2 metabolite formation in data set [3] (inhibitor 20 µM, phenacetin 12 µM, pHLM 0.4 mg/mL, 15 min, control without inhibitor = 100%) is 61%. Further, the CYP2C8 metabolite formation in data set [4] (amodiaquine 2 µM, pHLM 0.4 mg/mL, 15 min, control without inhibitor = 100%) was 105%. Further, in data set [4] (amodiaquine, pHLM, t-test versus control), the “inhibition of CYP2C8” value is “no significant inhibition”.

Source of the values: paper PMC11968506, “Toxicokinetics and analytical toxicology of the phenmetrazine-derived new psychoactive substance 3,4-methylenedioxyphenmetrazine studied by means of in vitro systems” (Archives of Toxicology, 2025).
